The record followed here is patent publication US6552073B1, “Compounds and methods of treating cell proliferative diseases” (Exonhit Therapeutics SA, priority 2002, dated 2003).

“Also recorded” adds a separate entry of the source.

In one data set the test system is MDA-MB-231 cells. The data set can be described thus: Matrigel invasion assay (Boyden chamber). The settings on record: MDA-MB-231, Boyden chamber, matrigel. Type of data set: cell-based, human. The protocol:
d) Migration and Matrigel Invasion Assay
Chemoinvasion assay was performed in Boyden chamber as described by Albini et al (Cancer Res, 1987) with some modifications. Polycarbonate membranes with 8μm pores were coated with matrigel (125 μg/cm^2) at room temperature for 48 h. Two hours before experiments, the matrix was […] with serum-free medium containing 0.1% BSA.
One day after seeding, 10^6 MDA-MB-231 cells were treated overnight with different concentrations of compounds (1, 10, 17.5, 25 and 50 μM). Cells were collected with Versene (Invitrogen), counted with trypan blue exclusion, rinsed twice in serum-free medium containing 0.1% BSA and resuspended in serum-free medium containing 0.1% BSA plus the appropriate concentration of compound. 10^5 treated cells were placed in the upper chamber. Medium containing 10% of FBS plus the appropriate concentration of compound was placed in the lower chamber as a chemoattractant. The Boyden chamber was incubated 6 hours at 37° C. before the cells were fixed and stained with Diff-Quick (Dade-Berhing). Cells on the upper part of the filters were removed using a cotton swab. Cells on the underside of the filters were visualised and counted under light microscope. The migration assay was performed the same way, using non-coated filters.

In another data set the test system is MDA231. The experiment in a line: Cytoskeleton analysis, actin staining. Type of data set: cell-based, human. How it is done:
(§1) Since major rearrangements of cytoskeleton are observed in tumor cells and since the small GTPases are known to regulate these events, analysis of actin cytoskeleton was performed. Subconfluent cells seeded onto coverslips were treated with different concentration of compound (1, 10, 17.5, 25 and 50 μM) or vehicle for 24 h, before being fixed in 4% formaldehyde for 15 min., permeabilized in 0.2% Triton X100 for 5 minutes and incubated in PowerBlock (Biogenex) for 10 min. Actin filaments were stained with 0.5 μg/ml fluorescein isothiocyanate (FITC)-labelled phalloidin for 1 hour. Analysis was performed using an inverted fluorescent microscope.

Data set [1] has as its system NIH3T3 cells transfected with RasV12. The experiment in a line: Colony formation assay in the presence of constitutively activated Ras (RasV12). Type of data set: cell-based, mouse. Further details: key to Colony formation: −: no effect of the compound was observed; +: an effect of the compound was observed. The settings on record: NIH3T3, neoR colonies. How it is done:
c) Ras/Rac-dependant Signaling Pathway Analysis
The impact of the compounds on Ras and Rac signaling pathways was analysed with two reporter systems described by Imler (Nature 1988) and Lin (Science, 1995) respectively on one hand, and by a colony formation assay in the presence of constitutively activated Ras (RasV12) and Rac (RacV12) on the other hand. For this latter experiment, fifty percent confluent NIH3T3 cells in a 10 cm diameter petri dish were transfected with 0.5 μg pSV2-RasV12 or 0.5 μg pEXV RacV12 plasmids plus 100 ng of pSV2-neomycin plasmid using Lipofectamine-Plus reagent (Invitrogen) according to the manufacturer's instructions. Forty-eight hours later, cells were trypsinised, splitted to 1/3, and incubated in the presence of complete medium supplemented with 400 μg/ml geneticin (Invitrogen) and different doses of compound (1, 10, 17.5, 25 and 50 μM) until emerging resistant clones appear (2-3 weeks). The medium was renewed every 3 days. Colonies with a minimum of 50 cells were counted after staining with Fuschin 2%.

The test system of the next data set is NIH3T3. The data set can be described thus: Cytoskeleton analysis, actin staining. Type of data set: cell-based, mouse. How it is done:
as §1

One may read the melting point as the temperature of the solid-liquid transition. With `C/C=C/c1oc(CO)cc(=O)c1OCCCCCOc1ccc(Cl)c(Cl)c1` [EH30101], the melting point was in the range of 100 to 101 °C.

`C/C=C/c1oc(CO)cc(=O)c1OCCCCCOc1ccc(Cl)cc1` [EH26101, (E)-3-[5-(4-Chlorophenyloxy)pentyloxy]-6-(hydroxymethyl)-2(propen-1-yl)-4H-pyran-4-one] gave a melting point of 84 to 85 °C.

`CCCc1c(OCCCCCCOc2coc(CO)cc2=O)ccc(Cl)c1Cl` [EH16701, 5-[6-(3,4-Dichloro-2-propylphenyloxy)hexyloxy]-2-(hydroxymethyl)-4H-pyran-4-one] gave a melting point of 86 to 87 °C. Besides, in the data set with MDA-MB-231 cells, the Invasion entry is “No significant effect”. In the data set on MDA231, the “Cell architecture modification, actin staining MDA231, general observation” value is “cell spreading”.

Molecule `C/C=C/c1oc(CO)cc(=O)c1OCCCCCOc1ccccc1CCC` [EH9301, (E)-6-(Hydroxymethyl)-2-(propen-1-yl)-3-[5-(2-propylphenyloxy)pentyloxy]-4H-pyran-4-one] had a melting point of 67 to 68 °C. For the same molecule, the Invasion entry in the data set with MDA-MB-231 cells is on record as “No significant effect”. In data set [1], the Colony formation result was “−”. With `O=C(O)c1cc(=O)c(OCCCCCOc2ccc(Cl)cc2)co1` [EH17600, 5-[5-(4-Chlorophenyloxy)pentyloxy]-4-oxo-4H-pyran-2-carboxylic acid], the melting point lay in the range of 154 to 156 °C. Still for that read-out and setting: next, `C/C=C/c1oc(C(=O)O)cc(=O)c1OCCCCCOc1ccc(Cl)c(Cl)c1` [EH10501, (E)-3-[5-(3,4-Dichlorophenyloxy)pentyloxy]-2-(propen-1-yl)-4-oxo-4H-pyran-6-carboxylic acid]: 118 to 119 °C. Take `CCCc1c(OCCCCCCCOc2coc(CO)cc2=O)ccc(Cl)c1Cl` [EH17701, 5-[7-(3,4-Dichloro-2-propylphenyloxy)heptyloxy]-2-(hydroxymethyl)-4H-pyran-4-one]: the melting point lay within 62 to 64 °C. Moreover, in the data set on MDA231, the “Cell architecture modification, actin staining MDA231, general observation” value is “cell spreading”. Turning to `C/C=C/c1oc(C(=O)O)cc(=O)c1OCCCCCOc1ccc(Cl)cc1` [EH17401, (E)-3-[-5-(4-Chlorophenyloxy)pentyloxy]-2-(propen-1-yl)-4-oxo-4H-pyran-6-carboxylic acid], the melting point is 136 to 137 °C. Same read-out and setting: the same measure for `C/C=C/c1oc(CO)cc(=O)c1OCCCCCOc1cccc(Cl)c1` [EH16201, (E)-3-[5-(3-Chlorophenyloxy)pentyloxy]-6-(hydroxymethyl)-2-(propen-1-yl)-4H-pyran-4-one]: 50 to 51 °C; for `CCOc1ccccc1OCCCCCOc1coc(C(=O)O)cc1=O` [EH4701, 5-[5-(2-Ethyloxyphenyloxy)pentyloxy]-4-oxo-4H-pyran-2-carboxylic acid]: 141 to 142 °C.

Turning to `CCCc1cc(Cl)c(Cl)cc1OCCCCCOc1coc(CO)cc1=O` [EH30701, 5-[5-(4,5-Dichloro-2-propylphenyloxy)pentyloxy]-2-(hydroxymethyl)-4H-pyran-4-one], the melting point is 83 to 84 °C. For the same molecule, the “Cell architecture modification, actin staining MDA231, general observation” value with MDA231 is on record as “cell spreading”. With `CCCc1ccccc1OCCCCCOc1coc(C(=O)O)cc1=O` [EH26900, 5-[5-(2-Propylphenyloxy)pentyloxy]-4-oxo-4H-pyran-2-carboxylic acid], the melting point is 145 to 146 °C. Molecule `CCOc1ccccc1OCCCCCOc1coc(CO)cc1=O` [EH18601, 5-[5-(2-Ethyloxyphenyloxy)pentyloxy]-2-(hydroxymethyl)-4H-pyran-4-one] gave a melting point of 75 to 76 °C. In the data set with MDA-MB-231 cells, the Invasion entry is listed as “No significant effect”.

`O=C(O)c1cc(=O)c(OCCCCCOc2ccc(Cl)c(Cl)c2)co1` [EH6600, 5-[5-(3,4-Dichlorophenyloxy)pentyloxy]-4-oxo-4H-pyran-2-carboxylic acid] yielded a melting point of 159 to 161 °C. The same measure, in the same setting: next, `C/C=C/c1oc(C(=O)O)cc(=O)c1OCCCCCOc1ccccc1CCC` [EH15301, (E)-2-(Propen-1-yl)-3-[5-(2-propylphenyloxy)pentyloxy]-4-oxo-4H-pyran-6-carboxvlic acid]: 145 to 146 °C. In turn, `O=c1cc(COCc2ccccc2)occ1OCCCCCOc1ccc(Cl)c(Cl)c1` [EH7701, 2-(Benzyloxymethyl)-5-[5-(3,4-dichlorophenyloxy)pentyloxy]-4H-pyran-4-one] yielded a melting point of 82 to 83 °C. Moreover, the Invasion result in the data set with MDA-MB-231 cells was “No significant effect”. Further, the “Cell architecture modification, actin staining MDA231, general observation” value in the data set with MDA231 was “cell spreading”. In turn, `O=c1cc(CO)occ1OCCCCCOc1ccc(Cl)c(Cl)c1` [EH5500, 5-[5-(3,4-Dichlorophenyloxy)pentyloxy]-2-(hydroxymethyl)-4H-pyran-4-one] displayed a melting point of 97 to 99 °C. For the same molecule, the Colony formation result in data set [1] is “−”. In addition, in the data set on NIH3T3, the “Cell architecture modification, actin staining NIH3T3, general observation” value is reported as “affected the general morphology; also recorded: cell destructuration”. `O=C(O)c1cc(=O)c(OCCCCCOc2cccc(Cl)c2)co1` [EH15700, 5-[5-(3-Chlorophenyloxy)pentyloxy]-4-oxo-4H-pyran-2-carboxylic acid] gave a melting point of 160 to 161 °C. Molecule `O=c1cc(CO)occ1OCCCCOc1ccc(Cl)c(Cl)c1` [EH17700, 5-[4-(3,4-Dichlorophenyloxy)butyloxy]-2-(hydroxymethyl)-4H-pyran-4-one] registered a melting point of 107 to 108 °C. Further, the Colony formation result in data set [1] is “−”. Take `O=c1cc(CO)occ1OCCCCCOc1cccc(Cl)c1` [EH10600, 5-[5-(3-Chlorophenyloxy)pentyloxy]-2-(hydroxymethyl)-4H-pyran-4-one]: the melting point lay within 87 to 88 °C. Besides, the Colony formation entry in data set [1] is on record as “−”. For the same molecule, the “Cell architecture modification, actin staining NIH3T3, general observation” value in the data set with NIH3T3 was “affected the general morphology; also recorded: cell destructuration”. `C/C=C/c1oc(C(=O)O)cc(=O)c1OCCCCCOc1cccc(Cl)c1` [EH18401, (E)-3-[5-(3-Chlorophenyloxy)pentyloxy]-2-(propen-1-yl)-4-oxo-4H-pyran-6-carboxylic acid] had a melting point of 116 to 117 °C. Same read-out and setting: the same measure for `CCCc1c(OCCCCCOc2coc(C(=O)O)cc2=O)ccc(Cl)c1Cl` [EH27900, 5-[5-(3,4-Dichloro-2-propylphenyloxy)pentyloxy]-4-oxo-4H-pyran-2-carboxylic acid]: 155 to 156 °C; for `O=C(NCc1ccccc1)c1cc(=O)c(OCCCCCOc2ccc(Cl)cc2)co1` [EH28900, N-Benzyl-5-[5-(4-Chlorophenyloxy)pentyloxy]-4-oxo-4H-pyran-2-carboxamide]: 125 to 126 °C. Still for that read-out and setting: the same measure for `O=C(O)c1cc(=O)c(OCCCCOc2ccc(Cl)c(Cl)c2)co1` [EH20700, 5-[4-(3,4-Dichlorophenyloxy)butyloxy]-4-oxo-4H-pyran-2-carboxylic acid]: 182 to 183 °C; for `C/C=C/c1oc(C(=O)O)cc(=O)c1OCCCCCOc1ccc(Cl)c(Cl)c1CCC` [EH22501, (E)-3-[5-(3,4-Dichloro-2-propylphenyloxy)pentyloxy]-2-(propen-1-yl)-4-oxo-4H-pyran-6-carboxylic acid]: 161 to 162 °C.
